From article PMC7313459, “Insights into the Mn^2+ Binding Site in the Agmatinase-Like Protein (ALP): A Critical Enzyme for the Regulation of Agmatine Levels in Mammals” (International Journal of Molecular Sciences, 2020) come the findings set out here.

The assay addresses T1, central-ALP (Rattus norvegicus, UniProt A0A8I6ASI2).
T1 construct: gene Limch1
The assay is described as follows: urea formation, colorimetric (alpha-isonitrosopropiophenone, […] nm). The format is biochemical. Conditions: 5 mM MnCl2, 50 mM glycine-NaOH pH 9.0, 37 °C; not pre-heated.

The Km is the concentration of substrate that gives half-maximal velocity.

T1 sequence (A0A8I6ASI2 141-351): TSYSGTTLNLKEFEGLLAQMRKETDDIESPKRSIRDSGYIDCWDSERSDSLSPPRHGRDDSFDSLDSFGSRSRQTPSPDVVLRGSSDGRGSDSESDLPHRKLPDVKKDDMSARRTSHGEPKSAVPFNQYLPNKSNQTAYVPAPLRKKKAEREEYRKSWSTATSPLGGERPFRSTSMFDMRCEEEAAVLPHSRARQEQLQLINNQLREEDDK

With `N=C(N)NCCCCN` [agmatine, 1-amino-4-guanidinobutane], the Km came out at 1200 ± 370 µM.
